From patent publication US10611750B2, “Tetrahydroquinoline compositions as bet bromodomain inhibitors” (FORMA Therapeutics, Inc., priority 2013, dated 2020)

Legend:
[1] = target: T1, BRD4 Bromodomain 1 (BRD4 BD1) (Homo sapiens, UniProt O60885); assay: AlphaScreen binding assay, BRD4 BD1; settings: His-tagged BRD4 BD1 50 nM, biotinylated H4 (1-21) K5/8/12/16 tetra-acetylated peptide 50 nM, compounds listed under IC50 range headings
T1 construct: 44-168 and BRD4 BD2
Procedure, shortened: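 An AlphaScreen competition format was used with His-BRD4 BD1 or BD2 and biotin-H4 K5/8/12/16-acetyl peptide, each at matched final levels of 50 nM (BD1) or 100 nM (BD2). Incubation in HEPES/NaCl buffer with 0.1% BSA and 0.01% Triton X-100 ran ≥1 h before IC50 determination.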

[2] = test system: acute myelocytic leukemia (AML) cell line MV4-11; assay: Oncology cell growth assay (3-day proliferation, CellTiter-Glo); assay type: cell-based; settings: Homo sapiens, MV4-11, 72 h, MV4-11 cells, 3000 cells/well, compounds listed under IC50 range headings, read-out: MV411 IC50 (gIC50, inhibition of proliferation)
Procedure, shortened: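 MV4-11 AML cells (RPMI 1640, 10% FBS) plated at 3000 cells/well and exposed 72 h to compound at final 10 to 0.0045 μM (3-fold series). Viability read by CellTiter-Glo luminescence; gIC50 from four-parameter logistic fit between DMSO control and no-cell background.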

| SMILES | IC50 [1] | IC50 [2] |
| --- | --- | --- |
| C[C@H]1CCc2c(ccc(-c3cnn4c3N(S(C)(=O)=O)CC4)c2OC2CCC2)N1C(=O)C1CC1 [I-279, ((2S)-5-cyclobutoxy-2-methyl-6-(1-(methylsulfonyl)-2,3-dihydro-1H-pyrazolo[1,5-a]imidazol-7-yl)-3,4-dihydroquinolin-1 (2H)-yl)(cyclopropyl)methanone] | 1000 to 10000 nM | > 1000 nM |
| COC(=O)N1c2ccc(-c3csc(C4(O)CCNCC4)n3)c(OC3CCC3)c2CC[C@@H]1C [I-280, methyl (S)-5-cyclobutoxy-6-(2-(4-hydroxypiperidin-4-yl)thiazol-4-yl)-2-methyl-3,4-dihydroquinoline-1(2H)-carboxylate] | 1000 to 10000 nM | < 500 nM |
| COC(=O)N1c2ccc(-c3csc(C4(F)CCNCC4)n3)c(OC3CCC3)c2CC[C@@H]1C [I-281, methyl (S)-5-cyclobutoxy-6-(2-(4-fluoropiperidin-4-yl)thiazol-4-yl)-2-methyl-3,4-dihydroquinoline-1(2H)-carboxylate] | 100 to 1000 nM | 500 to 1000 nM |
| COC(=O)N1c2ccc(-c3cnn(C4CCNCC4OC)c3)c(OC3CCC3)c2CC[C@@H]1C (stereo partly drawn) [I-290, (2S)-methyl 5-cyclobutoxy-6-(1-(3-methoxypiperidin-4-yl)-1H-pyrazol-4-yl)-2-methyl-3,4-dihydroquinoline-1(2H)-carboxylate] | 100 to 1000 nM | < 500 nM |
| COC(=O)N1c2ccc(-c3cnn(C4CCNCC4OC)c3)c(Oc3ccc(F)cc3)c2CC[C@@H]1C (stereo partly drawn) [I-291, (2S)-methyl 5-(4-fluorophenoxy)-6-(1-(3-methoxypiperidin-4-yl)-1H-pyrazol-4-yl)-2-methyl-3,4-dihydroquinoline-1(2H)-carboxylate] | 100 to 1000 nM | < 500 nM |
| COC(=O)N1c2ccc(-c3cnn(C4CCN(C)CC4OC)c3)c(OC3CCC3)c2CC[C@@H]1C (stereo partly drawn) [I-292, (2S)-methyl 5-cyclobutoxy-6-(1-(3-methoxy-1-methylpiperidin-4-yl)-1H-pyrazol-4-yl)-2-methyl-3,4-dihydroquinoline-1 (2H)-carboxylate] | 100 to 1000 nM | < 500 nM |
| COC(=O)N1c2ccc(-c3cnn(C4CCN(C)CC4OC)c3)c(Oc3ccc(F)cc3)c2CC[C@@H]1C (stereo partly drawn) [I-293, (2S)-methyl 5-(4-fluorophenoxy)-6-(1-(3-methoxy-1-methylpiperidin-4-yl)-1H-pyrazol-4-yl)-2-methyl-3,4-dihydroquinoline-1(2H)-carboxylate] | 100 to 1000 nM | < 500 nM |
| C[C@H]1CCc2c(ccc(-c3cnn(C4CCCS(=O)(=O)C4)c3)c2Oc2ccccc2)N1C(=O)C1CC1 (stereo partly drawn) [I-294, 3-{4-[(2S)-1-cyclopropanecarbonyl-2-methyl-5-phenoxy-1,2,3,4-tetrahydroquinolin-6-yl]-1H-pyrazol-1-yl}-1λ^6-thiane-1,1-dione] | 100 to 1000 nM | < 500 nM |
| C[C@H]1CCc2c(ccc(-c3cnn(C4CCCS(=O)(=O)C4)c3)c2Oc2ccc(F)cc2)N1C(=O)C1CC1 (stereo partly drawn) [I-295, 3-{4-[(2S)-1-cyclopropanecarbonyl-5-(4-fluorophenoxy)-2-methyl-1,2,3,4-tetrahydroquinolin-6-yl]-1H-pyrazol-1-yl}-1λ^6-thiane-1,1-dione] | 100 to 1000 nM | < 500 nM |
| COC(=O)N1c2ccc(-c3cnn(C4CCNC(=O)C4)c3)c(OC3CCC3)c2CC[C@@H]1C (stereo partly drawn) [I-296, (2S)-methyl 5-cyclobutoxy-2-methyl-6-(1-(2-oxopiperidin-4-yl)-1H-pyrazol-4-yl)-3,4-dihydroquinoline-1(2H)-carboxylate] | 100 to 1000 nM | < 500 nM |
| COC(=O)N1c2ccc(-c3cnn(C4CCNC(=O)C4)c3)c(Oc3ccc(F)cc3)c2CC[C@@H]1C (stereo partly drawn) [I-297, (2S)-methyl 5-(4-fluorophenoxy)-2-methyl-6-(1-(2-oxopiperidin-4-yl)-1H-pyrazol-4-yl)-3,4-dihydroquinoline-1(2H)-carboxylate] | 100 to 1000 nM | < 500 nM |
| COC(=O)N1c2ccc(-c3cnn(C4CNC4C)c3)c(Oc3ccc(F)cc3)c2CC[C@@H]1C (stereo partly drawn) [I-298, methyl (2S)-5-(4-fluorophenoxy)-2-methyl-6-(1-(2-methylazetidin-3-yl)-1H-pyrazol-4-yl)-3,4-dihydroquinoline-1(2H)-carboxylate] | 100 to 1000 nM | < 500 nM |
| COC(=O)N1c2ccc(-c3cnn(C4CNC4C)c3)c(OC3CCC3)c2CC[C@@H]1C (stereo partly drawn) [I-299, methyl (2S)-5-cyclobutoxy-2-methyl-6-(1-(2-methylazetidin-3-yl)-1H-pyrazol-4-yl)-3,4-dihydroquinoline-1(2H)-carboxylate] | 1000 to 10000 nM | 500 to 1000 nM |
| C[C@H]1CCc2c(ccc(-c3cnn(C4CC4)c3NS(C)(=O)=O)c2OC2CCC2)N1C(=O)C1CC1 [I-300, N-(4-((2S)-5-cyclobutoxy-1-(cyclopropanecarbonyl)-2-methyl-1,2,3,4-tetrahydroquinolin-6-yl)-1-cyclopropyl-1H-pyrazol-5-yl)methanesulfonamide] | ≥ 10000 nM | > 1000 nM |
| CC(=O)Nc1c(-c2ccc3c(c2OC2CCC2)CC[C@H](C)N3C(=O)C2CC2)cnn1C1CC1 [I-301, N-(4-((2S)-5-cyclobutoxy-1-(cyclopropanecarbonyl)-2-methyl-1,2,3,4-tetrahydroquinolin-6-yl)-1-cyclopropyl-1H-pyrazol-5-yl)acetamide] | 1000 to 10000 nM | > 1000 nM |
| COC(=O)N1c2ccc(-c3cnn(C4CC(O)C4)c3)c(OC3CCC3)c2CC[C@@H]1C (stereo partly drawn) [I-302, (S)-methyl 5-cyclobutoxy-6-(1-(3-hydroxycyclobutyl)-1H-pyrazol-4-yl)-2-methyl-3,4-dihydroquinoline-1(2H)-carboxylate] | 100 to 1000 nM | < 500 nM |
| COC(=O)N1c2ccc(-c3c[nH]c(C4CCNCC4)n3)c(OC3CCC3)c2CC[C@@H]1C [I-303, methyl (S)-5-cyclobutoxy-2-methyl-6-(2-(piperidin-4-yl)-1H-imidazol-4-yl)-3,4-dihydroquinoline-1(2H)-carboxylate] | 100 to 1000 nM | < 500 nM |
| COC(=O)N1c2ccc(-c3cn(C)c(C4CCNCC4)n3)c(OC3CCC3)c2CC[C@@H]1C [I-304, methyl (S)-5-cyclobutoxy-2-methyl-6-(1-methyl-2-(piperidin-4-yl)-1H-imidazol-4-yl)-3,4-dihydroquinoline-1(2H)-carboxylate] | ≥ 10000 nM | > 1000 nM |
| C[C@H]1CCc2c(ccc(-c3ccn(C4CCNCC4)n3)c2OC2CCC2)N1C(=O)C1CC1 [I-305, (S)-(5-cyclobutoxy-2-methyl-6-(1-(piperidin-4-yl)-1H-pyrazol-3-yl)-3,4-dihydroquinolin-1 (2H)-yl)(cyclopropyl)methanone] | 1000 to 10000 nM | < 500 nM |
| C[C@H]1CCc2c(ccc(-c3ccnn3C3CCNCC3)c2OC2CCC2)N1C(=O)C1CC1 [I-306, ((2S)-5-cyclobutoxy-2-methyl-6-(1-(piperidin-4-yl)-1H-pyrazol-5-yl)-3,4-dihydroquinolin-1(2H)-yl)(cyclopropyl)methanone] | ≥ 10000 nM | > 1000 nM |
| C[C@H]1CCc2c(ccc(-c3ccn(C4CCNCC4)n3)c2Oc2ccccc2)N1C(=O)C1CC1 [I-307, (S)-cyclopropyl(2-methyl-5-phenoxy-6-(1-(piperidin-4-yl)-1H-pyrazol-3-yl)-3,4-dihydroquinolin-1(2H)-yl)methanone] | 100 to 1000 nM | < 500 nM |
| C[C@H]1CCc2c(ccc(-c3ccnn3C3CCNCC3)c2Oc2ccccc2)N1C(=O)C1CC1 [I-308, cyclopropyl((2S)-2-methyl-5-phenoxy-6-(1-(piperidin-4-yl)-1H-pyrazol-5-yl)-3,4-dihydroquinolin-1(2H)-yl)methanone] | ≥ 10000 nM | > 1000 nM |
| C[C@H]1CCc2c(ccc(-c3cnn(C4CCNCC4)n3)c2OC2CCC2)N1C(=O)C1CC1 [I-309, (S)-(5-cyclobutoxy-2-methyl-6-(2-(piperidin-4-yl)-2H-1,2,3-triazol-4-yl)-3,4-dihydroquinolin-1(2H)-yl)(cyclopropyl)methanone] | 1000 to 10000 nM | < 500 nM |
| C[C@H]1CCc2c(ccc(-c3cn(C4CCNCC4)nn3)c2OC2CCC2)N1C(=O)C1CC1 [I-310, (S)-(5-cyclobutoxy-2-methyl-6-(1-(piperidin-4-yl)-1H-1,2,3-triazol-4-yl)-3,4-dihydroquinolin-1(2H)-yl)(cyclopropyl)methanone] | 100 to 1000 nM | < 500 nM |
| C[C@H]1CCc2c(ccc(-c3cnn(C4CCNCC4)n3)c2Oc2ccccc2)N1C(=O)C1CC1 [I-311, (S)-cyclopropyl(2-methyl-5-phenoxy-6-(2-(piperidin-4-yl)-2H-1,2,3-triazol-4-yl)-3,4-dihydroquinolin-1(2H)-yl)methanone] | < 100 nM | < 500 nM |
| C[C@H]1CCc2c(ccc(-c3cn(C4CCNCC4)nn3)c2Oc2ccccc2)N1C(=O)C1CC1 [I-312, (S)-cyclopropyl(2-methyl-5-phenoxy-6-(1-(piperidin-4-yl)-1H-1,2,3-triazol-4-yl)-3,4-dihydroquinolin-1(2H)-yl)methanone] | < 100 nM | < 500 nM |
| COC(=O)N1c2ccc(-c3csc(C4CNC4)n3)c(OC3CCC3)c2CC[C@@H]1C [I-313, (S)-methyl 6-(2-(azetidin-3-yl)thiazol-4-yl)-5-cyclobutoxy-2-methyl-3,4-dihydroquinoline-1(2H)-carboxylate] | 100 to 1000 nM | > 1000 nM |
| COC(=O)N1c2ccc(-c3csc(C4(O)CNC4)n3)c(OC3CCC3)c2CC[C@@H]1C [I-314, (S)-methyl-5-cyclobutoxy-6-(2-(3-hydroxyazetidin-3-yl)thiazol-4-yl)-2-methyl-3,4-dihydroquinoline-1(2H)-carboxylate] | 1000 to 10000 nM | > 1000 nM |
